Laboratory results: patent publication US20060188903A1, “Implantation serine proteinases” (priority 2001, published 2006)

How the values were obtained:
ISP2 mRNA = test: Uterine ISP2 gene expression by in situ hybridization in hormone- or RU486-treated mice; assay type: in vivo, mouse; settings: for induction of ISP2 gene expression: after ovariectomy without progesterone maintenance, up to 14 days; for maintenance of ISP2 gene expression: delayed implantation after ovariectomy
Procedure: All surgical procedures were carried out after the mice were anaesthetized with an i.p. injection of Avertin (2% (w/v) tribromoethanol; Aldrich Chemical Co. Milwaukee, Wis.). Ovariectomy was performed by dorsal-lateral incision (Hogan et al., 1994). Ovariectomized mice were allowed at least 1 wk for recovery before the induction of deciduomas. All steroid hormones including RU486 were dissolved in sesame oil and injected s.c. At each stage of the experiment, control mice were used which received only oil (0.1 ml/mouse) injections. The standard regimen for artificial induction of deciduomas (Finn, 1966) was modified to more closely mimic pseudo-pregnancy (Milligan, 1995). Here, the first progesterone treatment was started […] after exposure to oestrogen. This modified regimen consisted of 100 ng oestrogen daily starting on Day 0, and 1 mg progesterone plus 10 ng oestrogen from day three onward. Deciduomas were induced surgically on Day 5 (between 1400-1600 h) by injecting sesame oil (10 μl) into the lumen of one uterine horn from its oviductal tip. Injected and uninjected horns were collected 24, 48 or 72 hours later for histological sectioning and in situ hybridization analysis.
Delayed implantation was induced and maintained by ovariectomising mice on day 3 of pregnancy, followed by administration of progesterone (2 mg/mouse) on days 4 to 6. Subsequently, half these mice were treated with estrogen (25 ng/mouse) on the morning of the seventh day, while the other half received the normal progesterone injection. Mice were sacrificed 24 hours later for analysis by in situ hybridization.
The effect of steroids on uterine development in the absence of blastocysts was examined by ovariectomizing mice and treating them with hormone injections after a two week recovery period. They received injections of either progesterone (1 mg/mouse), estrogen (100 ng/mouse), or a combination of both (10 ng estrogen and 1 mg progesterone/mouse) for three days. Mice were then sacrificed on the morning of the fourth day. To further determine the importance of progesterone on ISP2 gene expression superovulated pregnant and pseudo-pregnant mice (Hogan et al., 1994) were treated with RU486 (400 μg/mouse) on the morning of the third day after a vaginal plug was detected. The mice were then sacrificed 24 hours later and their uterine horns were collected for in situ hybridization analysis.
Whole embryo RNA in situ hybridization using digoxigenin-labelled RNA probes was performed essentially as previously described (Rancourt and Rancourt, 1997). The ISP1 probe comprised the 478 bp RT-PCR subclone in pBSKS^+. The ISP2 probe also comprised a 478 by RT-PCR subclone in pBSKS^+. The antisense probes were synthesized using T3 polymerase after plasmid linearization with EcoRI. […]

Mouse Blastocysts = test: In vitro blastocyst hatching after oligodeoxynucleotide administration; assay type: cell-based; settings: for Percent Hatched over Time: 100 blastocysts; for effect on blastocyst hatching (in words): scored at 20, 30, 40 and 60 hours
Procedure: (§1) Morulae were collected from oviducts of superovulated, 2.5 day pregnant dams in M2 medium (Hogan et al., 1994). For hatching, morulae were cultured in microwells for approximately 24 hrs at 37° C., 5% CO2 in KSOMaa medium (Erbach et al., 1994). In embryo outgrowth, hatched blastocysts were cultured for an additional 48 hrs at 37° C., 5% CO2 in Dulbecco's Modified Eagle's Medium plus 5% (v/v) fetal bovine serum on microwells coated with extracellular matrix derived from 10% (v/v) Triton X-100-treated mouse embryo fibroblasts (Behrendtsen et al., 1995).
In antisense oligodeoxynucleotide studies, harvested blastocysts were placed in 0.001% (v/v) L-a-lysophosphatidylcholine for 60 seconds (Jones et al., 1997) and were transferred to microdrops equilibrated with 2.5 μM, 5 μM oligodeoxynucleotide or an equal volume of H2O (Behrendtsen et al., 1995). Two antisense oligodeoxynucleotides were designed against regions surrounding ISP1's initiation codon: AS1 (5′-[…]-3′; SEQ ID NO;13) situated upstream, AS2 (5′-[…]-3′; SEQ ID NO:14) lying downstream. A control oligodeoxynucleotide, SS1 (5′-[…]-3′; SEQ ID NO:15), represented the scrambled sense sequence surrounding the initiation codon. The oligodeoxynucleotides were designed using Oligo™ software and were synthesized and purified by Dr. Richard Pon, UC DNA Services (University of Calgary). Blastocysts were scored at 20, 30, 40, and 60 hours for progress in hatching. […] Following eight hours of treatment, some blastocysts were assayed for the presence of ISP1 transcripts using RT-PCR. Following 24 hours of treatment, some blastocysts were assayed for strypsin activity using histochemical staining. In outgrowth studies, blastocysts were allowed to hatch and then transferred to microdrops equilibrated with oligodeoxynucleotide or water. Progress in outgrowth was monitored over a period of 5 days.
A possible role for ISP1 in hatching was examined by determining whether ISP1 mRNA could be reduced in blastocysts by treatment with antisense oligodeoxynucleotides (Behrendtsen et al., 1995; Jones et al., 1997) and result in an alteration of the hatching process. Two antisense oligodeoxynucleotides were designed surrounding ISP1's initiation codon covering the region immediately upstream (AS1) and downstream (AS2). A control oligodeoxynucleotide (SS1) represented the scrambled sense sequence surrounding the initiation codon. Blastocysts were scored at 20, 30, 40, and 60 hours for progress in hatching.

strypsin = test: Histochemical staining of strypsin activity in blastocysts; assay type: cell-based, mouse; settings: 24 hours of treatment
Procedure: Whole embryo RNA in situ hybridization using digoxigenin-labelled RNA probes was performed essentially as previously described (Rancourt and Rancourt, 1997). The ISP1 probe comprised the 478 bp RT-PCR subclone in pBSKS^+. The ISP2 probe also comprised a 478 by RT-PCR subclone in pBSKS^+. The antisense probes were synthesized using T3 polymerase after plasmid linearization with EcoRI. The sense probes were synthesized using T7 polymerase after plasmid linearization with BamHI. All experiments were performed with the sense RNA probe in parallel to detect non-specific hybridization. Histochemical staining of strypsin activity was performed essentially as outlined previously (Perona and Wassarman, 1986). Embryos were collected as early blastocysts in M2 medium, and were lightly fixed in 1.25% (w/v) glutaraldehyde in 0.25M sucrose, 50 mM sodium phosphate (pH7.5) for five min at 4° C. Following fixation, the blastocysts were placed in 50 mM sodium phosphate (pH7.5) containing the substrate N-α-benzoyl-DL-arginine β-napthylamide (0.56 mM; Sigma) and Fast Garnet GBC salt (1.86 mM; Sigma), were incubated for 5 min at room temperature and washed in 50 mM sodium phosphate (pH7.5).
(§2) In antisense oligodeoxynucleotide studies, harvested blastocysts were placed in 0.001% (v/v) L-a-lysophosphatidylcholine for 60 seconds (Jones et al., 1997) and were transferred to microdrops equilibrated with 2.5 μM, 5 μM oligodeoxynucleotide or an equal volume of H2O (Behrendtsen et al., 1995). Two antisense oligodeoxynucleotides were designed against regions surrounding ISP1's initiation codon: AS1 (5′-[…]-3′; SEQ ID NO;13) situated upstream, AS2 (5′-[…]-3′; SEQ ID NO:14) lying downstream. A control oligodeoxynucleotide, SS1 (5′-[…]-3′; SEQ ID NO:15), represented the scrambled sense sequence surrounding the initiation codon. […] Blastocysts were scored at 20, 30, 40, and 60 hours for progress in hatching. […] Progress in outgrowth was monitored over a period of 5 days.

ISP1 transcripts = test: RT-PCR of ISP1 transcripts in oligodeoxynucleotide-treated blastocysts; assay type: cell-based, mouse; settings: after eight hours of culture
Procedure: The presence of ISP1 transcripts in embryos and placentas was monitored using RT-PCR. Total RNA (1 μg) was reverse transcribed and amplified using ISP1 specific primers (ISP1 for 5′-[…]-3′; SEQ ID NO:9 and ISP1rev 5′-GTCAAAGATGGCCACAGC-3+: SEQ ID NO: 10) and forty rounds of thermal cycling (1 min at 94° C., 2 min at 60° C., and 2 min at 72° C.). The RT-PCR amplification of GAPDH (as a control for mRNA loading) is described elsewhere (Arcellana-Panlilio and Schultz, 1993). The predicted 175 and 380 bp amplification products were separated on a 2% (w/v) agarose gel.
as §2

hatched blastocysts = test: Blastocyst outgrowth on extracellular matrix after hatching; assay type: cell-based, mouse; settings: prehatched blastocysts in culture with oligodeoxynucleotide
Procedure: as §1, §2

Molecule	induction of ISP2 gene expression (ISP2 mRNA)	maintenance of ISP2 gene expression (ISP2 mRNA)	Percent Hatched over Time (Mouse Blastocysts; 2.5 µM, 20 hours) [%]	Percent Hatched over Time (Mouse Blastocysts; 2.5 µM, 30 hours) [%]	Percent Hatched over Time (Mouse Blastocysts; 2.5 µM, 40 hours) [%]	Percent Hatched over Time (Mouse Blastocysts; 2.5 µM, 60 hours) [%]	Percent Hatched over Time (Mouse Blastocysts; 5.0 µM, 20 hours) [%]	Percent Hatched over Time (Mouse Blastocysts; 5.0 µM, 30 hours) [%]	Percent Hatched over Time (Mouse Blastocysts; 5.0 µM, 40 hours) [%]	Percent Hatched over Time (Mouse Blastocysts; 5.0 µM, 60 hours) [%]	effect on blastocyst hatching (in words) (Mouse Blastocysts)	strypsin activity at the abembryonic pole (histochemical) (strypsin)	strypsin activity at the abembryonic pole (histochemical) (strypsin; listed as antisense oligodeoxynucleotide)	reduction of accumulation of ISP1 transcripts (ISP1 transcripts)	time to adhere to extracellular matrix (hatched blastocysts) [days]	ISP1 transcript levels (in words) (ISP1 transcripts; versus untreated controls)
CC(=O)[C@H]1CC[C@H]2[C@@H]3CCC4=CC(=O)CC[C@]4(C)[C@H]3CC[C@]12C [progesterone]	could be induced	normal ISP2 expression was observed	–	–	–	–	–	–	–	–	–	–	–	–	–	–
AS1: antisense oligodeoxynucleotide upstream of ISP1's initiation codon, 5′-TCTAACTACCGTCTAACAACG-3′; SEQ ID NO:13 (DNA, backbone and methylation of C not given here)	–	–	0	0	16	37	10	10	20	20	interfered specifically with blastocyst hatching	reduced strypsin activity	strypsin activity was absent	at least 100 fold	5	–
AS2: antisense oligodeoxynucleotide downstream of ISP1's initiation codon, 5′-GAACTCTTCTAACTACCGTCT-3′; SEQ ID NO:14 (DNA, backbone and methylation of C not given here)	–	–	0	20	35	40	0	5	35	45	interfered specifically with blastocyst hatching	–	–	–	–	–
SS1: control oligodeoxynucleotide, scrambled sense sequence surrounding the ISP1 initiation codon, 5′-ACGGTAGTTAGAAGAGTTCT-3′; SEQ ID NO:15 (DNA, backbone and methylation of C not given here) [reference compound]	–	–	10	16	58	90	10	39	61	77	–	localized strypsin activity was observed	–	–	2	significant reduction was not observed
estrogen	did not have a stimulatory effect	not observed	–	–	–	–	–	–	–	–	–	–	–	–	–	–
